Consider three molecules from EP0397025B1, “[2-(2-pyridyl)ethyl]-methylamine salts” (PRODOTTI FORMENTI S.r.l., priority 1989, dated 1990).

Counter-ions that a name gives are not always drawn. Like-named read-outs stand apart in the source and are kept apart here.

The test system of one data set is gastric mucosa. Nature of the data set: Effect on gastric erosions (Adami index). Format: in vivo. Conditions: for N^o GASTRIC EROSIONS / SEVERITY: Adami index. Here is the method: A comparison test between betahistine hydrochloride and betahistine fumarate was carried out, evaluating the toxicity (LD₅₀) and the effect on gastric erosions, at equimolar doses.
Admnistration volume = 15 ml/kg Evaluation of the stomach conditions = 1h after administration according to Adami index.

A short description of data set [1]: pH of the administered treatment. Format: physicochemical. The note with it: treatment as administered in the gastric erosion test.
A short description of data set [2]: Bioavailability test on rats. Conditions: rat, in vivo. Here is the method:
The AUCs, in the time 0-3 hours, for betahistine fumarate and betahistine dihydrochloride evidence no significant differences (8.2 vs 7.6 h.µg/ml, respectively).

A short description of another data set: Solubility. Format: physicochemical.
Data set [3] is described as follows: Partition coefficient octanol/buffer. Format: physicochemical. The note with it: for logD: octanol/buffer, pH 9, octanol/buffer pH = 9.0.
Where [4] appears, read: 20 mmoles/kg, administration volume 15 ml/kg, 1h after administration, dihydrochloride.
The mark [5] stands for this setting: 20 mmoles/kg, administration volume 15 ml/kg, 1h after administration.

Take `CNCCc1ccccn1` [BETAHISTINE DIHYDROCHLORIDE, betahistine dihydrochloride, reference compound]: in the data set with gastric mucosa (setting [4]), the “N^o GASTRIC EROSIONS” value is given as 7.92±1.26, the SEVERITY stood at 3.85±0.35 and the “% ANIMALS WITH EROSIONS: serious erosions” value stood at 92.32% serious erosions. Moreover, the pH result in data set [1] (dihydrochloride) is reported as “BETAHISTINE DIHYDROCHLORIDE pH=1.6”. For the same molecule, in data set [2], the AUC was found to be 7600 ng·h/mL and the bioavailability entry is recorded as “substantially the same bioavailability”.
Consider `CNCCc1ccccn1` [BETAHISTINE FUMARATE, Betahistine Fumarate], for which, in the data set with gastric mucosa (setting [5]), the “% ANIMALS WITH EROSIONS: diffused bleeding” value stood at 20%, the “% ANIMALS WITH EROSIONS: serious erosions” value is 10%, the “N^o GASTRIC EROSIONS” value was found to be 0.3±0.3 and the SEVERITY is 0.6±0.31. Besides, the “effect on gastric erosions” value with gastric mucosa (equimolar doses, compared with the hydrochloride) is recorded as “markedly improved”. For the same molecule, the pH entry in data set [1] was “BETAHISTINE FUMARATE pH = 4.19”. Further, the “plasmatic curve peak after the administration” value in data set [2] is 15 min. Besides, the AUC at 3 h in data set [2] (rats, 0-3 hours, read-out: AUCs, in the time 0-3 hours) worked out at 8200 ng·h/mL. In addition, the Solubility in acetone result in “Solubility” (acetone) is on record as “poorly soluble”. The “Solubility in acid aqueous solutions” value in “Solubility” (acid aqueous solutions) was “soluble”. In addition, the Solubility in chloroform entry in the data set “Solubility” (chloroform) was “almost unsoluble”. Moreover, the Solubility in ethanol result in “Solubility” (ethanol) is listed as “soluble”. Also, in the data set “Solubility” (methanol), the Solubility in methanol entry was “soluble”. Moreover, the Solubility in water result in “Solubility” (water) is “soluble”. The logD in data set [3] (read-out: Partition coefficient P (converted)) was -0.904. Also, the logD in data set [3] (read-out: logP) came out at 0.904.
On to `CNCCc1ccccn1` [BETAHISTINE, [2-(2-Pyridyl)ethyl]-methylamine], for which the “Partition coefficient P” value in data set [3] (octanol/buffer pH = 9.0) is 0.147.
